Each structure is given as a SMILES string.

In this experiment the target is FP receptor (Homo sapiens (Human), UniProt P43088). Kind of experiment: In vitro test of inhibition of human FP receptor activity (PGF2α-induced calcium flux in FP-expressing CHEM1 cells). The experiment is classed as cell-based. To be noted: PGF2α-induced (2 nM) calcium flux in FP-expressing CHEM1 cells; some as mean values from multiple determinations. The source says: Table 1 below lists the IC50 values from this assay for individual working examples of the invention (some as mean values from multiple independent individual determinations): […]
Chain of FP receptor (P43088 whole entry): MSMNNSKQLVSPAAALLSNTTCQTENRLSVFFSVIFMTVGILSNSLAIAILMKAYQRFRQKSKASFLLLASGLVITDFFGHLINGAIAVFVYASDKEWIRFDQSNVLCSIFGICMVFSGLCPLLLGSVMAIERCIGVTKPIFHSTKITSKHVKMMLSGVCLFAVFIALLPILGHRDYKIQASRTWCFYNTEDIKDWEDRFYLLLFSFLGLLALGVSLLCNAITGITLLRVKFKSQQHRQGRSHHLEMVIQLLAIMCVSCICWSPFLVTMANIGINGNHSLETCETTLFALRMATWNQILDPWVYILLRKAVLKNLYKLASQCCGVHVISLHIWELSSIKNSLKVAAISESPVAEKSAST
For `COc1ccccc1C(CNC(=O)c1c(C)c(-c2ccccc2)nc2ccc(Br)cc12)C(=O)O` (single isomer, unassigned; (+)) [Example 9, (+)-3-{[(6-Bromo-3-methyl-2-phenylquinolin-4-yl)carbonyl]amino}-2-(2-methoxyphenyl)propanoic Acid], the IC50 was 7.2 nM.
Next, `Cc1c(-c2ccccc2)nc2ccc(Br)cc2c1C(=O)NCC(C)(C(=O)O)c1ccccc1` (single isomer, unassigned; (+)) [Example 15, (+)-3-{[(6-Bromo-3-methyl-2-phenylquinolin-4-yl)carbonyl]amino}-2-methyl-2-phenylpropanoic Acid]: 190 nM.
Next, `CCC(CNC(=O)c1c(C)c(-c2ccccc2)nc2ccc(Br)cc12)(C(=O)O)c1ccccc1` (single isomer, unassigned; (+)) [Example 18, (+)-2-({[(6-Bromo-3-methyl-2-phenylquinolin-4-yl)carbonyl]amino}methyl)-2-phenylbutanoic Acid]: 120 nM; `Cc1c(-c2ccccc2)nc2ccc(Br)cc2c1C(=O)NCC(O)(C(=O)O)c1ccccc1` (single isomer, unassigned; (+)) [Example 20, (+)-3-{[(6-Bromo-3-methyl-2-phenylquinolin-4-yl)carbonyl]amino}-2-hydroxy-2-phenylpropanoic Acid]: 97 nM; `Cc1c(-c2ccccc2)nc2ccc(Br)cc2c1C(=O)NCC(C)(C(=O)O)c1ccccc1F` (single isomer, unassigned; (+)) [Example 30, (+)-3-{[(6-Bromo-3-methyl-2-phenylquinolin-4-yl)carbonyl]amino}-2-(2-fluorophenyl)-2-methylpropanoic Acid]: 340 nM.
Regarding `Cc1c(-c2ccccc2)nc2ccc(Br)cc2c1C(=O)NCC(C)(C(=O)O)c1c(F)cccc1F` (single isomer, unassigned; (+)) [Example 33, (+)-3-{[(6-Bromo-3-methyl-2-phenylquinolin-4-yl)carbonyl]amino}-2-(2,6-difluorophenyl)-2-methylpropanoic Acid], the IC50 amounted to 190 nM.
The same measure for `Cc1c(-c2ccccc2)nc2ccc(Br)cc2c1C(=O)NCC(C)(C(=O)O)c1ccccc1Cl` (single isomer, unassigned; (+)) [Example 37, (+)-3-{[(6-Bromo-3-methyl-2-phenylquinolin-4-yl)carbonyl]amino}-2-(2-chlorophenyl)-2-methylpropanoic Acid]: 160 nM.
Next, `Cc1c(-c2ccccc2)nc2ccc(Br)cc2c1C(=O)NCC(F)(C(=O)O)c1ccccc1` (single isomer, unassigned; (+)) [Example 40, (+)-3-{[(6-Bromo-3-methyl-2-phenylquinolin-4-yl)carbonyl]amino}-2-fluoro-2-phenylpropanoic Acid]: 34 nM.
Next, `Cc1c(-c2ccccc2)nc2ccc(Br)cc2c1C(=O)NCC(C)(C(=O)O)c1cccc(C(F)(F)F)c1` (single isomer, unassigned; (+)) [Example 43, (+)-3-{[(6-Bromo-3-methyl-2-phenylquinolin-4-yl)carbonyl]amino}-2-methyl-2-[3-(trifluoromethyl)phenyl]propanoic Acid]: 140 nM; `COc1cccc(C(CNC(=O)c2c(C)c(-c3ccccc3)nc3ccc(Br)cc23)C(=O)O)c1` (single isomer, unassigned; (+)) [Example 46, (+)-3-{[(6-Bromo-3-methyl-2-phenylquinolin-4-yl)carbonyl]amino}-2-(3-methoxyphenyl)propanoic Acid]: 230 nM.
As for `Cc1c(-c2ccccc2)nc2ccc(Br)cc2c1C(=O)NCC(C(=O)O)c1cccc(Cl)c1` (single isomer, unassigned; (+)) [Example 49, (+)-3-{[(6-Bromo-3-methyl-2-phenylquinolin-4-yl)carbonyl]amino}-2-(3-chlorophenyl)propanoic Acid], the IC50 amounted to 69 nM.
Next, `Cc1cccc(C(CNC(=O)c2c(C)c(-c3ccccc3)nc3ccc(Br)cc23)C(=O)O)c1` (single isomer, unassigned; (+)) [Example 52, (+)-3-{[(6-Bromo-3-methyl-2-phenylquinolin-4-yl)carbonyl]amino}-2-(3-methylphenyl)propanoic Acid]: 71 nM.
Next, `COc1ccccc1C(O)(CNC(=O)c1c(C)c(-c2ccccc2)nc2ccc(Br)cc12)C(=O)O` (single isomer, unassigned; (+)) [Example 55, (+)-3-{[(6-Bromo-3-methyl-2-phenylquinolin-4-yl)carbonyl]amino}-2-hydroxy-2-(2-methoxyphenyl)propanoic Acid]: 78 nM.
The same measure for `COc1cccc(F)c1C(CNC(=O)c1c(C)c(-c2ccccc2)nc2ccc(Br)cc12)C(=O)O` (single isomer, unassigned; (+)) [Example 58, (+)-3-{[(6-Bromo-3-methyl-2-phenylquinolin-4-yl)carbonyl]amino}-2-(2-fluoro-6-methoxyphenyl)propanoic Acid]: 9.7 nM; for `COc1ccccc1C(C)(CNC(=O)c1c(C)c(-c2ccccc2)nc2ccc(Br)cc12)C(=O)O` (single isomer, unassigned; (+)) [Example 60, (+)-3-{[(6-Bromo-3-methyl-2-phenylquinolin-4-yl)carbonyl]amino}-2-(2-methoxyphenyl)-2-methylpropanoic Acid]: 120 nM; for `Cc1c(-c2ccccc2)nc2ccc(Br)cc2c1C(=O)NCC(C)(C(=O)O)c1c(F)cccc1Cl` (single isomer, unassigned; (+)) [Example 61, (+)-3-{[(6-Bromo-3-methyl-2-phenylquinolin-4-yl)carbonyl]amino}-2-(2-chloro-6-fluorophenyl)-2-methylpropanoic Acid]: 230 nM.
For the molecule `Cc1c(-c2ccccc2)nc2ccc(Br)cc2c1C(=O)NCC(CC(=O)O)c1ccccc1` (single isomer, unassigned; (+)) [Example 65, (+)-4-{[(6-Bromo-3-methyl-2-phenylquinolin-4-yl)carbonyl]amino}-3-phenylbutanoic Acid], the IC50 was found to be 220 nM.
The same measure for `Cc1c(-c2ccccc2)nc2ccc(Br)cc2c1C(=O)NCC(CC(=O)O)c1ccc(Cl)cc1` (single isomer, unassigned; (+)) [Example 67, (+)-4-{[(6-Bromo-3-methyl-2-phenylquinolin-4-yl)carbonyl]amino}-3-(4-chlorophenyl)butanoic Acid]: 370 nM; for `Cc1ccccc1C(CNC(=O)c1c(C)c(-c2ccccc2)nc2ccc(Br)cc12)CC(=O)O` (single isomer, unassigned; (+)) [Example 77, (+)-4-{[(6-Bromo-3-methyl-2-phenylquinolin-4-yl)carbonyl]amino}-3-(2-methylphenyl)butanoic Acid]: 85 nM.
The same measure for `Cc1c(-c2ccccc2)nc2ccc(Br)cc2c1C(=O)NCC(C)(CC(=O)O)c1ncccc1Cl` (single isomer, unassigned; (+)) [Example 86, (+)-4-{[(6-Bromo-3-methyl-2-phenylquinolin-4-yl)carbonyl]amino}-3-(3-chloropyridin-2-yl)-3-methylbutanoic Acid]: 240 nM.
The same measure for `Cc1c(-c2ccccc2)nc2ccc(Br)cc2c1C(=O)NCC(CC(=O)O)c1c(F)cccc1Cl` (single isomer, unassigned; (+)) [Example 89, (+)-4-{[(6-Bromo-3-methyl-2-phenylquinolin-4-yl)carbonyl]amino}-3-(2-chloro-6-fluorophenyl)butanoic Acid]: 27 nM.

The record behind these values is patent US11136296B2, “Substituted N-arylethyl-2-arylquinoline-4-carboxamides and use thereof” (Bayer Aktiengesellschaft, priority 2017, dated 2021).
